Legend:
[1] = Specific surface area by BET sorptometry; assay type: physicochemical
Text: The BET specific surface area test procedure is a compendial method included in both the United States Pharmaceopeia and the European Pharmaceopeia.

[2] = Bulk density (10 mL graduated cylinder, modified USP <616> Method I); assay type: physicochemical; conditions: not tapped
Protocol: As used herein, the bulk density of the cisplatin particles is the mass of the totality of particles in the composition divided by the total volume they occupy when poured into a graduated cylinder and not tapped. The total volume includes particle volume, inter-particle void volume, and internal pore volume.
Bulk density analyses were conducted using a 10 mL graduated cylinder due to low sample volume.

[3] = Particle size distribution by laser diffraction (Malvern Mastersizer 3000, Hydro MV); assay type: physicochemical; conditions: dispersed in ethyl acetate
Protocol: Particle size analyses were conducted on a Malvern Mastersizer™ 3000 using the Hydro MV dispersion unit. A non-validated general PSD method/dispersant method was used to analyze the cisplatin samples. The sample preparation procedure performed was as follows: Weigh 10 to 20 mg of cisplatin into a 30-mL vial, add 20 mL of ethyl acetate. Disperse the sample by vortexing then sonicating the suspension in an ultrasonic bath for 1 minute. Then transfer the sample suspension to the Malvern Hydro MV dispersion unit to obtain obscuration between 5 and 15%.

[4] = tested on: H69 tumor cells; experiment: SCP-Cisplatin pilot study, subcutaneous H69 tumor in NCr nu/nu mice, single intra-tumoral injection; assay type: in vivo
Protocol: 55 CR female NCr nu/nu mice 8-12 weeks of age at start date were injected subcutaneously in the flank with 1×10^7 H69 tumor cells in 50% Matrigel; cell injection volume was 0.1 mL/mouse. A pair match was performed when tumors reach an average size of 100-150 mm^3, after which treatment was initiated as detailed in Table 2.
Tumor cells implanted on Day 0 and treatments initiated on Day 18 (Mean TV=126 mm^3). There were 5 treatment groups (n=5/group); all receiving IT injections =25 uL; 27G needle. The IT vehicle group was administered ethanol/glycerin/water. Animals were sacrificed at humane endpoint of TV=2000 mm^3 or Study Day 51.

SMILES | Surface Area [1] [m^2/g] | Bulk Density [2] [g/mL] | PSD-Master sizer Dv10 [3] [μm] | PSD-Master sizer Dv50 [3] [μm] | PSD-Master sizer Dv90 [3] [μm] | tumor volume of surviving animals on Day 51 ([4]; 25 μg/animal intra-tumoral qd × 1) | animals survived on Day 51 ([4]; 25 μg/animal intra-tumoral qd × 1, n=5, endpoint TV=2000 mm^3 or Day 51)
N.N.[Cl][Pt][Cl] [Raw, Cisplatin] | 2.44 | 1.01 | 1.72 | 10.9 | 25.9 |  | 
N.N.[Cl][Pt][Cl] [Cisplatin] |  |  |  |  |  | increasing tumor volume | 3 of 5

— patent US20250360166A1, “Cisplatin particles and uses thereof” (CRITITECH, INC., priority 2021, published 2025)
